Reference: patent US12329745B2, “Methods and compositions for treating glucocorticoid excess” (Sparrow Pharmaceuticals, Inc., priority 2022, dated 2025)

Columns and labels:
[1] = system: urine tetrahydrocortisone; test: Urine tetrahydrocortisone (excreted cortisone metabolite; liver cortisone levels); type: in vivo, human; conditions: healthy adults
Experimental: In healthy adults administered a single dose of 10, 20, or 50 mg SPI-62 (n=40), the least squares mean (standard error) tetrahydrocortisone was 32.71 (1.149) […] compared to 9.19 (2.300) mol after a single dose of matching placebo (n=10). In the same subjects after 14 daily doses, tetrahydrocortisone was 42.73 (1.968) mol for SPI-62 and 8.51 (0.410) mol for placebo. Similar results were also observed in elderly adults.

HSD-1 [2] = target: T1, HSD-1 (Homo sapiens, UniProt P28845); test: Target-mediated drug disposition (TMDD) population PK / PK-PD model
brain HSD-1 = target: T2, brain HSD-1 (Homo sapiens, UniProt P28845); test: Brain HSD-1 occupancy by PET, competition with [11C]AS2471907; type: in vivo; conditions: single dose 3 mg
T2 construct: Brain HSD-1 occupancy following a single dose of SPI-62 3 mg; from tissue; host or cells: brain in vivo
Experimental: Brain HSD-1 occupancy following a single dose of SPI-62 3 mg, assessed by competition with the HSD-1-specific PET ligand [^11C]AS2471907, was 84-90% at 3.3 to 25 hours, 56-83% at 42 to 46 hours, 36 to 45% at 139 hours, and 26% at 189 hours. The pharmacologic half-life of SPI-62 in brain is, as expected, shorter than that in liver.

purified human HSD-1 = purified human HSD-1 (Homo sapiens, UniProt P28845); test: In vitro inhibition of purified human HSD-1; type: biochemical
[3] = Phase 2 trial 3662-CL-0049 in painful diabetic peripheral neuropathy: TC, glucose, HbA1c, TG; type: in vivo, human
Experimental: Analyses of covariance were conducted to analyze total cholesterol (TC), glucose, glycated hemoglobin (HbA1c), and triglycerides (TG), with baseline value as the covariate and a baseline*treatment interaction term, in patients with painful diabetic peripheral neuropathy following daily administration of SPI-62 or placebo. Data were obtained from study 3662-CL-0049, a Phase 2 randomized, double-blind, placebo- and active-controlled clinical trial of the safety and efficacy of SPI-62 in subjects with painful diabetic peripheral neuropathy.

HSD-1 [4] = target: T1, HSD-1; test: Surface plasmon resonance binding kinetics in presence of NADPH (residence time); conditions: 300 μM NADPH; reciprocal of the dissociation rate constant; read-out: Residence Time (converted)
Excerpt: Pseudo-irreversible HSD-1 inhibitors can be identified via in vitro enzyme kinetics evaluation, in which they are expected to show longer enzyme residence times compared to other HSD-1 inhibitors. Surface plasmon resonance (SPR) is the resonant oscillation of conduction electrons at the interface between negative and positive permittivity material stimulated by incident light. When a protein is bound to a surface, SPR can be used to detect ligand binding to the protein. […] Association and dissociation of test compounds were monitored in the presence of 300 µM NADPH throughout the experiment.

T1 sequence (P28845 whole entry): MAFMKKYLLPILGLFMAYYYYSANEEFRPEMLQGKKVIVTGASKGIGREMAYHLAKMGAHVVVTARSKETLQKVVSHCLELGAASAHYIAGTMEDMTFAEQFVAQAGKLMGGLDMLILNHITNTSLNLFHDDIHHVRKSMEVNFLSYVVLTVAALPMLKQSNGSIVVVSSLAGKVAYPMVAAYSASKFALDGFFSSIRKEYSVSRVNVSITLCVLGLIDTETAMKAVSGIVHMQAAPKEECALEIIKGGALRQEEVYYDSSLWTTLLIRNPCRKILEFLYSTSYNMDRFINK
T2 sequence (P28845 whole entry): as above
purified human HSD-1, sequence (P28845 whole entry): as above

With `Cn1c(-c2ccc(C(N)=O)cc2F)nnc1C(C)(C)Oc1c(F)cc(Cl)cc1F` [SPI-62, 4-(5-(2-(4-chloro-2,6-difluorophenoxy)propan-2-yl)-4-methyl-4H-1,2,4-triazol-3-yl)-3-fluorobenzamide] the “urine tetrahydrocortisone, least squares mean (standard error)” value ([1]; after 14 daily doses) was 42.73 (1.968) mol, the “urine tetrahydrocortisone, least squares mean (standard error)” value ([1]; single dose of 10, 20, or 50 mg (n=40)) was 32.71 (1.149) mol and the IC50 (HSD-1 [2]) was 0.0234 nM. The Kd (HSD-1 [2]) was 0.183 nM, the “estimated total target amount (RTOT+RTA) as SPI-62” value (HSD-1 [2]; both, human, in vivo) was 3.6 mg and the “Kd lower than the Ki” value (HSD-1 [2]; in vivo) was “approximately 60 fold”. For the same compound, the “estimated Kd lower than Ki for purified human HSD-1” value (HSD-1 [2]; in vivo) was 29 fold, the “estimated Kd lower than measured Ki for human HSD-1 expressed in CHO cells” value (HSD-1 [2]; in vivo) was 69 fold and the Hill coefficient (HSD-1 [2]; model parameter estimate) was 1.42. The “association rate constant (kon)” value (HSD-1 [2]; model parameter estimate) was 400000 M⁻¹ s⁻¹, the “total target amount in the adipose compartment (RTA)” value (HSD-1 [2]; model parameter estimate) was 671 nM and the koff (HSD-1 [2]; read-out: dissociation rate constant (koff)) was 7.33e-05 s⁻¹. For the same compound, the “brain HSD-1 occupancy” value (brain HSD-1; 3.3 to 25 hours) was 84-90%, the “brain HSD-1 occupancy” value (brain HSD-1; 42 to 46 hours) was 56-83% and the IC50 (purified human HSD-1) was 17 nM. The Ki (purified human HSD-1) was 5.3 nM, the “Glucose, least squares mean (standard error)” value ([3]; Week 6/EOT) was 7.61 (0.556) mmol/L and the HbA1c, least squares mean (standard error) ([3]; Week 6/EOT) was 7.1%. For the same compound, the “TG, least squares mean (standard error)” value ([3]; Week 6/EOT) was 1.68 (0.202) mmol/L, the “TC, least squares mean (standard error)” value ([3]; Week 6/EOT, N = 36) was 3.95 (0.120) mmol/L and the “Glucose, least squares mean (standard error)” value ([3]; Week 8/EOS) was 7.78 (0.546) mmol/L. For the same compound, the HbA1c, least squares mean (standard error) ([3]; Week 8/EOS) was 7.02%, the “TC, least squares mean (standard error)” value ([3]; Week 8/EOS) was 4.16 (0.105) mmol/L and the “TG, least squares mean (standard error)” value ([3]; Week 8/EOS) was 1.63 (0.113) mmol/L. For the same compound, the residence time (HSD-1 [4]) was 8.92 min.
